Consider 12 compounds from publication PMC9866866, “Antiviral Activity of Benzoheterocyclic Compounds from Soil-Derived Streptomyces jiujiangensis NBERC-24992” (Molecules, 2023).

Structures are written as SMILES. In brackets after ≈: the same amount, converted by molar mass.

For the first series, the system named is PRV. Put plainly: microbe, parasite or virus in culture.
Settings: not given
The series is classed as cell-based, Pseudorabies virus.
`COCC1(CCC(C)=C(C)C)Nc2ccc(C(=O)O)cc2CC1Cl` (stereo not drawn) [Compound 4, virantmycin]: the “cells alive (protection of Vero cells against PRV)” value is on record as “more than 50%”.

Staying with this series, now noted: Suid alphaherpesvirus 1, Vero, 48 h, read-out: Antiviral Activity EC50.
As a reminder, the EC50 is the concentration needed to bring the measured effect to its halfway point. In the case of `NC(=O)c1ncn([C@@H]2O[C@H](CO)[C@@H](O)[C@H]2O)n1` [Ribavirin, reference compound], the EC50 came out at 4.44 ± 1.53 µg/mL (≈ 18.2 µM).

Turning to `COCC12CCC(C)(O)C(C)(C)C1Cc1cc(C(=O)O)ccc1N2` (stereo not drawn) [Compound 1, Virantmycin D], the EC50 was above 20 µg/mL.

With `COCC(O)(CCC(C)=C(C)C)C1Cc2cc(C(=O)O)ccc2N1` (stereo not drawn) [Compound 8, A-503451 B], the 50% effective concentration (EC50) was above 20 µg/mL.

For `COC[C@@]1(CCC(C)=C(C)C)Nc2ccc(C(=O)O)cc2C[C@H]1O` [Compound 5, A-503451 D], the EC50 is above 20 µg/mL.

As for `COC[C@@]1(CCC(CO)=C(C)C)Nc2ccc(C(=O)O)cc2C[C@H]1Cl` [Compound 3, Virantmycin F], the EC50 was found to be 1.74 ± 0.25 µg/mL (≈ 4.73 µM).

On to `COCC1(CCC(C)=C(C)C)Nc2ccc(C(=O)O)cc2CC1Cl` (stereo not drawn) [Compound 4, virantmycin], for which the EC50 is below 0.31 µg/mL.

Consider `COC[C@@]1(CCC(C)=C(C)C)Nc2ccc(C(=O)O)cc2C[C@H]1OC(C)=O` [Compound 6, A-503451 D acetylate], for which the EC50 is above 20 µg/mL.

With `COC[C@@](Cl)(CCC(C)=C(C)C)[C@@H]1Cc2cc(C(=O)O)ccc2N1` [Compound 7, A-503451 A], the EC50 came out at 6.46 ± 1.38 µg/mL (≈ 18.4 µM).

For `Nc1nc2c(ncn2COCCO)c(=O)[nH]1` [Acyclovir, reference compound], the EC50 was found to be 2.96 ± 1.48 µg/mL (≈ 13.1 µM).

In the case of `COCC(O)(CCC1(C)OC1(C)C)C1Cc2cc(C(=O)O)ccc2N1` (stereo not drawn) [Compound 2, Virantmycin E], the EC50 was above 20 µg/mL.

The subject of a further series is various RNA and DNA viruses.
Assay: not given
The note with it: cited from earlier work.
With `COCC1(CCC(C)=C(C)C)Nc2ccc(C(=O)O)cc2CC1Cl` (stereo not drawn) [Compound 4, virantmycin], the “antiviral activity against various RNA and DNA viruses” value is given as “significant antiviral activity”.

For another series, the system named is PRV.
Assay: not given
Settings: not given
It is filed as cell-based, Pseudorabies virus.
`COCC1(CCC(C)=C(C)C)Nc2ccc(C(=O)O)cc2CC1Cl` (stereo not drawn) [Compound 4, virantmycin]: the “PRV proliferation (qPCR, PRV gE)” value is reported as “inhibits PRV proliferation in a dose–dependent manner”.

The next series concerns several viruses.
Assay: not given
The note with it: cited from earlier work.
On to `COC[C@@]1(CCC(C)=C(C)C)Nc2ccc(C(N)=O)cc2C[C@H]1Cl` [Benzastatin C], for which the “antiviral activity against several viruses” value is on record as “specific activities against several viruses”.

In the case of `COC[C@@]1(CCC(C)=C(C)C)Nc2ccc(C(N)=O)cc2C[C@H]1O` [benzastatin D], the “antiviral activity against several viruses” value is “inactive”.

A further series has as its system Vero cells.
Assay: not given
Settings: not given
For `COCC1(CCC(C)=C(C)C)Nc2ccc(C(=O)O)cc2CC1Cl` (stereo not drawn) [Compound 4, virantmycin], the “toxic effect on the tested cells” value is given as “does not show any toxic effect”.

Staying with this series, now noted: African green monkey.
On to `NC(=O)c1ncn([C@@H]2O[C@H](CO)[C@@H](O)[C@H]2O)n1` [Ribavirin, reference compound], for which the “Cytotoxicity IC50 (CC50)” value was above 20 µg/mL.

For the compound `COCC12CCC(C)(O)C(C)(C)C1Cc1cc(C(=O)O)ccc1N2` (stereo not drawn) [Compound 1, Virantmycin D], the “Cytotoxicity IC50 (CC50)” value is above 20 µg/mL.

On to `COCC(O)(CCC(C)=C(C)C)C1Cc2cc(C(=O)O)ccc2N1` (stereo not drawn) [Compound 8, A-503451 B], for which the “Cytotoxicity IC50 (CC50)” value is above 20 µg/mL.

As to `COC[C@@]1(CCC(C)=C(C)C)Nc2ccc(C(=O)O)cc2C[C@H]1O` [Compound 5, A-503451 D], the “Cytotoxicity IC50 (CC50)” value was above 20 µg/mL.

`COC[C@@]1(CCC(CO)=C(C)C)Nc2ccc(C(=O)O)cc2C[C@H]1Cl` [Compound 3, Virantmycin F]: the “Cytotoxicity IC50 (CC50)” value is above 20 µg/mL.

As for `COCC1(CCC(C)=C(C)C)Nc2ccc(C(=O)O)cc2CC1Cl` (stereo not drawn) [Compound 4, virantmycin], the “Cytotoxicity IC50 (CC50)” value was above 20 µg/mL.

Take `COC[C@@]1(CCC(C)=C(C)C)Nc2ccc(C(=O)O)cc2C[C@H]1OC(C)=O` [Compound 6, A-503451 D acetylate]: the “Cytotoxicity IC50 (CC50)” value was above 20 µg/mL.

In the case of `Nc1nc2c(ncn2COCCO)c(=O)[nH]1` [Acyclovir, reference compound], the “Cytotoxicity IC50 (CC50)” value was above 20 µg/mL.

`COCC(O)(CCC1(C)OC1(C)C)C1Cc2cc(C(=O)O)ccc2N1` (stereo not drawn) [Compound 2, Virantmycin E]: the “Cytotoxicity IC50 (CC50)” value is above 20 µg/mL.

Test system in the next series: not listed separately
Put plainly: in vitro. The settings on record: African green monkey.
For orientation: viability means a per cent measure of how many cells are alive, often set against a control. The compound `COC[C@@]1(CCC(CO)=C(C)C)Nc2ccc(C(=O)O)cc2C[C@H]1Cl` [Compound 3, Virantmycin F] registered a viability of 80%.

For the next series, the system named is PRV.
Assay: not given
The series is classed as cell-based, Pseudorabies virus.
Settings: not given
This is another data set of the same source.
Turning to `COCC1(CCC(C)=C(C)C)Nc2ccc(C(=O)O)cc2CC1Cl` (stereo not drawn) [Compound 4, virantmycin], the “virus infection in PRV-infected cells (indirect immunofluorescence)” value was “significantly reduced”.
